Results: ChEMBL document CHEMBL1938364, “Discovery of orally active pyrazoloquinolines as potent PDE10 inhibitors for the management of schizophrenia” (Bioorg Med Chem Lett, 2012)
Each block holds one compound with its values, some of them ahead of it. Calls of active or inactive are those of the source. No cut-off for these calls is given here.

Columns and labels:
[1] = system: Rattus norvegicus; assay: Antipsychotic activity in rat schizophrenia model assessed as inhibition of MK801-induced hyperactivity at 10 mg/kg, po; type: functional
[2] = system: Rattus norvegicus; assay: Antipsychotic activity in rat schizophrenia model assessed as inhibition of MK801-induced hyperactivity at 3 mg/kg, po; type: functional
[3] = target: cAMP and cAMP-inhibited cGMP 3',5'-cyclic phosphodiesterase 10A (Homo sapiens, UniProt Q9Y233); assay: Displacement of [3H]cAMP from human recombinant PDE10A1 by competitive binding assay
[4] = system: Rattus norvegicus; assay: Antipsychotic activity in rat schizophrenia model assessed as inhibition of MK801-induced hyperactivity at 30 mg/kg, po; type: functional; set-up: scale not given: the % may be the effect or the level left
[5] = Displacement of [3H]cAMP from PDE6 by competitive binding assay
[6] = target: cGMP-specific 3',5'-cyclic phosphodiesterase (Homo sapiens, UniProt O76074); assay: Displacement of [3H]cAMP from PDE5A1 by competitive binding assay
[7] = target: High affinity cAMP-specific and IBMX-insensitive 3',5'-cyclic phosphodiesterase 8A (Homo sapiens, UniProt O60658); assay: Displacement of [3H]cAMP from PDE8A1 by competitive binding assay
[8] = target: High affinity 3',5'-cyclic-AMP phosphodiesterase 7A (Homo sapiens, UniProt Q13946); assay: Displacement of [3H]cAMP from PDE7A1 by competitive binding assay
[9] = target: High affinity cGMP-specific 3',5'-cyclic phosphodiesterase 9A (Homo sapiens, UniProt O76083); assay: Displacement of [3H]cAMP from PDE9A1 by competitive binding assay
[10] = target: Dual specificity calcium/calmodulin-dependent 3',5'-cyclic nucleotide phosphodiesterase 1A (Homo sapiens, UniProt P54750); assay: Displacement of [3H]cAMP from PDE1A3 by competitive binding assay
[11] = target: 3',5'-cyclic-AMP phosphodiesterase 4B (Homo sapiens, UniProt Q07343); assay: Displacement of [3H]cAMP from PDE4B2 by competitive binding assay
[12] = target: cGMP-dependent 3',5'-cyclic phosphodiesterase (Homo sapiens, UniProt O00408); assay: Displacement of [3H]cAMP from PDE2A by competitive binding assay
[13] = target: cGMP-inhibited 3',5'-cyclic phosphodiesterase 3A (Homo sapiens, UniProt Q14432); assay: Displacement of [3H]cAMP from PDE3A by competitive binding assay
[14] = target: Cytochrome P450 2D6 (Homo sapiens, UniProt P10635); assay: Inhibition of CYP2D6 up to 20 uM; type: ADME
[15] = system: Rattus norvegicus; assay: Antipsychotic activity in orally dosed rat schizophrenia model assessed as inhibition of MK801-induced hyperactivity; type: functional; conditions: po, read-out: MED
[16] = Clearance in rat hepatocytes assessed per million cells; type: ADME, cell-based, Hepatocyte; conditions: read-out: CLH
[17] = organism: Rattus norvegicus; assay: Ratio of drug level in brain to plasma in rat after 6 hrs; type: ADME, organism-based
[18] = target: Cytochrome P450 3A4 (Homo sapiens, UniProt P08684); assay: Inhibition of CYP3A4 up to 20 uM; type: ADME
[19] = Drug level in rat brain after 6 hrs; type: ADME, organism-based; conditions: read-out: Ct
[20] = target: Cytochrome P450 2C9 (Homo sapiens, UniProt P11712); assay: Inhibition of CYP2C9 up to 20 uM; type: ADME
[21] = system: Rattus norvegicus; assay: Toxicity in orally dosed rat schizophrenia model assessed as induction of hypolocomotion; type: organism-based; conditions: in vivo, po
[22] = Clearance in human hepatocytes assessed per million cells; type: ADME, cell-based, Hepatocyte; conditions: read-out: CLH
[23] = Protein binding in rat; type: ADME, organism-based; conditions: plasma, read-out: PB (converted)
[24] = Clearance in monkey hepatocytes assessed per million cells; type: ADME, cell-based, Macaca mulatta, Hepatocyte; conditions: rhesus monkey, read-out: CLH
[25] = target: hERG (KCNH2) (Homo sapiens, UniProt Q12809); assay: Inhibition of human ERG at 10 uM
Chain of hERG (KCNH2) (Q12809 whole entry): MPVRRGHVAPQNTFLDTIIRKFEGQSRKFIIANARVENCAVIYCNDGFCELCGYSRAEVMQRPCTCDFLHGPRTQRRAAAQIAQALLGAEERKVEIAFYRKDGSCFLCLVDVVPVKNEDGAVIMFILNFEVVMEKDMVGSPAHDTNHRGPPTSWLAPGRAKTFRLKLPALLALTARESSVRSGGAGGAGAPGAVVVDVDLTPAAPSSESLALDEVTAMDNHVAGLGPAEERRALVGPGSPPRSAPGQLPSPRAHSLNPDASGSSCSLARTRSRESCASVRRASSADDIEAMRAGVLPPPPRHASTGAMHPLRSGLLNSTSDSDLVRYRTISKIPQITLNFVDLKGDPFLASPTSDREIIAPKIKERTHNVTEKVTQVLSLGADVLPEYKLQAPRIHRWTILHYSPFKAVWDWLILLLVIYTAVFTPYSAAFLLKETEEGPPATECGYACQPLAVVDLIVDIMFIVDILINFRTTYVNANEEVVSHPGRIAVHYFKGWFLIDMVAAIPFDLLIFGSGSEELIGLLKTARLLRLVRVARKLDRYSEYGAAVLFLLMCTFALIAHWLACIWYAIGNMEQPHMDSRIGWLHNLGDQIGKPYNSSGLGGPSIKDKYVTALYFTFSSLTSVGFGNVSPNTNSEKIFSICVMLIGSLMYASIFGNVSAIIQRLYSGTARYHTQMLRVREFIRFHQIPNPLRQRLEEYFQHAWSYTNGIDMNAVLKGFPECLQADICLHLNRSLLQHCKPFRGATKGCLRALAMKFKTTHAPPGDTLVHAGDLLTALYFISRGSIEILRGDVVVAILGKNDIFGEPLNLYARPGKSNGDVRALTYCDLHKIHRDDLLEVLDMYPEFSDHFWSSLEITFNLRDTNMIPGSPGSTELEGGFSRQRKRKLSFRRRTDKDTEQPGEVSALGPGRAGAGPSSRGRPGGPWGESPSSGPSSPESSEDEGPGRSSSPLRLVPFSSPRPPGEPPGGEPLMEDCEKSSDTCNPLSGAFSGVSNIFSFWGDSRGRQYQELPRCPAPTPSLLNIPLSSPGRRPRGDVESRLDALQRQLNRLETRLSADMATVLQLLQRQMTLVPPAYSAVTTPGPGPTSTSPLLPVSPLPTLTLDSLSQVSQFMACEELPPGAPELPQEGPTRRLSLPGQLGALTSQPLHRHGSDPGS

Chain of cAMP and cAMP-inhibited cGMP 3',5'-cyclic phosphodiesterase 10A (Q9Y233 whole entry): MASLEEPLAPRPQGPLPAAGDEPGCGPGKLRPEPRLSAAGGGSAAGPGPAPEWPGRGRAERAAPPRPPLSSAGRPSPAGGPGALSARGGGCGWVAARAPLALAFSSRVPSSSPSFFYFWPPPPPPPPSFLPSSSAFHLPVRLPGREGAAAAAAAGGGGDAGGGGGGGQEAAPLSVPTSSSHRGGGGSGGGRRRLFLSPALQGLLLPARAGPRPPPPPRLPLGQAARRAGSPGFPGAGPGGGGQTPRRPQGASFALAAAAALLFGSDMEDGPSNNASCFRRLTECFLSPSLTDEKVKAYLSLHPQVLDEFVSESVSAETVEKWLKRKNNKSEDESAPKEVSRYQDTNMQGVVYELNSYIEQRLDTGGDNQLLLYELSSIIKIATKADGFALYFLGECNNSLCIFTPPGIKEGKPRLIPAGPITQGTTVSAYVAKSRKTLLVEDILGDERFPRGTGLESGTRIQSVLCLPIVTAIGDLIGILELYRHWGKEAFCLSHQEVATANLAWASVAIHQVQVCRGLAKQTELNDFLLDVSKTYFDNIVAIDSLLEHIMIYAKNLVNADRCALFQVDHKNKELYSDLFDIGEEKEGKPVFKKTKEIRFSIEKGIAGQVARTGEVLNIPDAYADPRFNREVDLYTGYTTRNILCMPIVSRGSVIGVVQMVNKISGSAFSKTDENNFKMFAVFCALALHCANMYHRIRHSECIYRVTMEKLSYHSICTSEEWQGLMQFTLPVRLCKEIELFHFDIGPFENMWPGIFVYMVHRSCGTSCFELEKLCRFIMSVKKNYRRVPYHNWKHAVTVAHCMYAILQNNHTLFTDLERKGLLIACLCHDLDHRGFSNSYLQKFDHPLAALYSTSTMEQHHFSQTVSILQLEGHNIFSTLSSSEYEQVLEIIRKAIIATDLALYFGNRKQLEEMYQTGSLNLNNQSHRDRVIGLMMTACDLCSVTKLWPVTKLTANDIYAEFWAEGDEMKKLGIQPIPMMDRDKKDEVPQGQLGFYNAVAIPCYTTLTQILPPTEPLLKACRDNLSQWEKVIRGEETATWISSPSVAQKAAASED
Chain of Cytochrome P450 3A4 (P08684 whole entry): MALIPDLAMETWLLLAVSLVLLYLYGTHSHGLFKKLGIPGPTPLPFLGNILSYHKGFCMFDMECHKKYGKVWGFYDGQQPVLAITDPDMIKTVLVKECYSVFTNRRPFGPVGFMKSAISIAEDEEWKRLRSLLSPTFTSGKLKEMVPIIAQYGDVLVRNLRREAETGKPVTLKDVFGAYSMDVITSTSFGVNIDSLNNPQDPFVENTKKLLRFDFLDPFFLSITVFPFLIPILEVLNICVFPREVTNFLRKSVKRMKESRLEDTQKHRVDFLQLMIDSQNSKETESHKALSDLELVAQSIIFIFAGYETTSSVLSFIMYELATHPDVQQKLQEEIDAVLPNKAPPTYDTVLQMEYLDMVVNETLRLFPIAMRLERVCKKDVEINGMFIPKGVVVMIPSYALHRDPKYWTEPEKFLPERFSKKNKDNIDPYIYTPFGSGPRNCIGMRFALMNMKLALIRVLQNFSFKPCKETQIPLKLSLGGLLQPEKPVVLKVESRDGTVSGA
Chain of 3',5'-cyclic-AMP phosphodiesterase 4B (Q07343 whole entry): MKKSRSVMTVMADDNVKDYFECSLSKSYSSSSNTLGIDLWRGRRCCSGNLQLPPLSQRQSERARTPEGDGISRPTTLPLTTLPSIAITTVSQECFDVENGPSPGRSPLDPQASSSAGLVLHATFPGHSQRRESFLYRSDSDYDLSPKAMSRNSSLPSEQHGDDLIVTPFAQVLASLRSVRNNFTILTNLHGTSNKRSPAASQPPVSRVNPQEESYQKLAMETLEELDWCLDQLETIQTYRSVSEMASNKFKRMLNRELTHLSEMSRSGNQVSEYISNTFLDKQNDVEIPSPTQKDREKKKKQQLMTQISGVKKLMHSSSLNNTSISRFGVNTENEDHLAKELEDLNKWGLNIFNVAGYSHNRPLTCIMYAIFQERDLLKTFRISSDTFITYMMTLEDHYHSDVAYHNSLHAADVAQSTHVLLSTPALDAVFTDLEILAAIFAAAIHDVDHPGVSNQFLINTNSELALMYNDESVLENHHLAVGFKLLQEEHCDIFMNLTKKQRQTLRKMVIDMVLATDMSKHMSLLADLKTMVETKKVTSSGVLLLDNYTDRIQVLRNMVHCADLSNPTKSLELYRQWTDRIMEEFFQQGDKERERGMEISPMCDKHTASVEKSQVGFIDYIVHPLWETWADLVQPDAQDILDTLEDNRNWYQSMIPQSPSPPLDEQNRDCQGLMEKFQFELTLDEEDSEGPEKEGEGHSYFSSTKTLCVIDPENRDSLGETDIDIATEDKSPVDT
Chain of High affinity 3',5'-cyclic-AMP phosphodiesterase 7A (Q13946 whole entry): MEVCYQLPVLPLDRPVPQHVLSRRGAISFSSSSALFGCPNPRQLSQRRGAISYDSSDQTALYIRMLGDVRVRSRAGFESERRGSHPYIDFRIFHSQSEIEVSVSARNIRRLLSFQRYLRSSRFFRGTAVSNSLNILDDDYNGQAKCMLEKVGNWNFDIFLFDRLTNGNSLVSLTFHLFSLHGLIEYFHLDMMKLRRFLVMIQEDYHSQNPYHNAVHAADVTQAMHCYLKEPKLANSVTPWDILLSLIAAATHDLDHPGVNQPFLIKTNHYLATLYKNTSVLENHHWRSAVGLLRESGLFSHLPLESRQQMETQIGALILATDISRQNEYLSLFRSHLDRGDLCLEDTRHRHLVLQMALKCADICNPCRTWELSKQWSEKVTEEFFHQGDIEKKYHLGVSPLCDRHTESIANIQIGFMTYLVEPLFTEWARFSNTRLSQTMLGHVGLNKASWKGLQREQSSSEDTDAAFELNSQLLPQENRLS
Chain of Cytochrome P450 2C9 (P11712 whole entry): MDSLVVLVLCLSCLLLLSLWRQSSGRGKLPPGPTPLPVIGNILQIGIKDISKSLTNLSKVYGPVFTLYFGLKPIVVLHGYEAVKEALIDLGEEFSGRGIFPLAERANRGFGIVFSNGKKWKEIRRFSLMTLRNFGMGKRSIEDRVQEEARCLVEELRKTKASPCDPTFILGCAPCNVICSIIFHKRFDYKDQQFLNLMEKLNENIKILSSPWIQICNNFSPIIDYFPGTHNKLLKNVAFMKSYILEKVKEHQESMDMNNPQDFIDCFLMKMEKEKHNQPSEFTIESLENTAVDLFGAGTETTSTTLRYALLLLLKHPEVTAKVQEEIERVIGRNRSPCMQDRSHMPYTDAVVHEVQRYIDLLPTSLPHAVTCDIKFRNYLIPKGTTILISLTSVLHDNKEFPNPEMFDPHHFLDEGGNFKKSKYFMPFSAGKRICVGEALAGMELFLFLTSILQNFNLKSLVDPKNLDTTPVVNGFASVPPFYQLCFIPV
Chain of Cytochrome P450 2D6 (P10635 whole entry): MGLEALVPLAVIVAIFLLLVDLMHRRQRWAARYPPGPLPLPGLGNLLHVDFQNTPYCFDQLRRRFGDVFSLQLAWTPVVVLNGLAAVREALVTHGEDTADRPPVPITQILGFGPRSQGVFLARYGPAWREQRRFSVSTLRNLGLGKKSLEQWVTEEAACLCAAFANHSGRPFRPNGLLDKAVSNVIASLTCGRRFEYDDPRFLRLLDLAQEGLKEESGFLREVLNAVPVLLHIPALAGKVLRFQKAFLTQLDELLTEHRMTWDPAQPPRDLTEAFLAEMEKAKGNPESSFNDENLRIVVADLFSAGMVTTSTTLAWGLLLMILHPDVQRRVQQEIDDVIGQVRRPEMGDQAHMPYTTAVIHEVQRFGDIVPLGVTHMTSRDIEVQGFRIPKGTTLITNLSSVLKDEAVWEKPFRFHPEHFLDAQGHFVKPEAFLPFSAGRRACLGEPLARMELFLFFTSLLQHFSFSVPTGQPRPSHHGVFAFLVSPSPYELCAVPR

Compound: COc1cc(C)c2nc3[nH]nc(C)c3c(CN3[C@@H]4CC[C@H]3C[C@@H](O)C4)c2c1
- Ki [3]: 265 nM

Compound: COc1cc(C)c2nc3[nH]nc(C)c3c(CN3C[C@@H](C)O[C@@H](C)C3)c2c1
- Ki [3]: 26 nM

Compound: Cc1cc(Cl)cc2c(CN3CCCOCC3)c3c(C)n[nH]c3nc12
- Activity [1]: inactive
- Activity [2]: inactive
- Ki [3]: 41 nM
- Activity [4]: 87%

Compound: COc1cc(OC)c2nc3[nH]nc(C)c3c(CN3CCCOCC3)c2c1
- Ki [3]: 14 nM

Compound: COc1cc(C)c2nc3[nH]nc(C)c3c(CN3CCC(F)CC3)c2c1
- Ki [3]: 202 nM

Compound: COc1cc(C)c2nc3[nH]nc(C)c3c(CN3CCC(C(F)(F)F)CC3)c2c1
- Ki [3]: 871 nM

Compound: COc1ccc2nc3[nH]nc(C)c3c(CN3CCCOCC3)c2c1
- Ki [3]: 153 nM

Compound: COc1cc(C)c2nc3[nH]nc(C)c3c(CN3CCC(CO)C3)c2c1 (stereo not drawn)
- Activity [1]: inactive
- Activity [2]: inactive
- Ki [3]: 32 nM
- Activity [4]: 38%

Compound: Cc1cc(OC(C)C)cc2c(CN3CCCOCC3)c3c(C)n[nH]c3nc12
- Ki [3]: 8 nM

Compound: Cc1cc(O)cc2c(CN3CCCOCC3)c3c(C)n[nH]c3nc12
- Ki [5]: 2400 nM
- Ki [3]: 2 nM
- Ki [6]: 20800 nM

Compound: Cc1cc(Cl)cc2c(CN3CC4CC3CO4)c3c(C)n[nH]c3nc12 (stereo not drawn)
- Ki [3]: 60 nM

Compound: Cc1cc(OC(F)(F)F)cc2c(CN3CCCOCC3)c3c(C)n[nH]c3nc12
- Ki [3]: 19 nM

Compound: Cc1cc(Cl)cc2c(CN3C4CCC3CC4)c3c(C)n[nH]c3nc12
- Ki [3]: 229 nM

Compound: COc1cc(C)c2nc3[nH]nc(C)c3c(CN3C4CCC3CC4)c2c1
- Ki [3]: 1200 nM

Compound: COc1cc(C)c2nc3[nH]nc(C)c3c(CN3CC4CC3CO4)c2c1 (stereo not drawn)
- Ki [3]: 46 nM

Compound: COc1cc(C)c2nc3[nH]nc(C)c3c(CN3CCOC(C)C3)c2c1 (stereo not drawn)
- Activity [1]: 88%
- Ki [5]: 8300 nM
- Activity [2]: inactive
- Ki [3]: 3 nM
- Ki [6]: 8900 nM
- Activity [4]: 130%

Compound: COc1cc(C)c2nc3[nH]nc(C)c3c(CN3CCCCC3)c2c1
- Ki [3]: 804 nM

Further lines, with some results ahead:

- Ki [3]: 57 nM
Compound: COc1cc(C)c2nc3[nH]nc(C)c3c(CN3CCC(O)CC3)c2c1
- Activity [1]: inactive
- Activity [2]: inactive
- Activity [4]: 136%

- Ki [5]: 300 nM
- Ki [3]: 0.6 nM
- Ki [6]: 5000 nM
Compound: COc1cc(C)c2nc3[nH]nc(C)c3c(CN3CCOC(CO)C3)c2c1 (stereo not drawn)
- Activity [1]: inactive
- Activity [2]: inactive
- Activity [4]: 104%

- Ki [3]: 9 nM
Compound: COc1cc(C)c2nc3[nH]nc(C)c3c(CN3CCNC(=O)C3)c2c1
- Activity [4]: inactive

- Ki [5]: 4700 nM
- Ki [3]: 3 nM
- Ki [6]: 6400 nM
Compound: COc1cc(C)c2nc3[nH]nc(C)c3c(CN3CC[C@@H](O)C3)c2c1
- Activity [1]: inactive
- Activity [2]: inactive
- Activity [4]: 102%

- Ki [3]: 104 nM
Compound: Cc1n[nH]c2nc3ccc(C(F)(F)F)cc3c(CN3CCCOCC3)c12

- Ki [3]: 49 nM
Compound: COc1cc(C)c2nc3[nH]nc(C)c3c(CN3CCNCC3)c2c1
- Activity [4]: inactive

- Ki [5]: 2000 nM
- Ki [6]: 10600 nM
Compound: COc1cc(C)c2nc3[nH]nc(C)c3c(CN3CCOCC3)c2c1
- Activity [1]: 131%
- Activity [2]: inactive
- Activity [4]: 109%

- Ki [7]: > 10000 nM
- Ki [8]: > 10000 nM
- Ki [5]: 5900 nM
- Ki [3]: 1 nM
- Ki [9]: > 10000 nM
- Ki [10]: > 10000 nM
- Ki [11]: > 10000 nM
- Ki [6]: 24400 nM
- Ki [12]: > 10000 nM
- Ki [13]: > 10000 nM
Compound: COCCOc1cc(C)c2nc3[nH]nc(C)c3c(CN3CCCOCC3)c2c1

- Ki [3]: 353 nM
Compound: COc1cc(C)c2nc3[nH]nc(C)c3c(CN3CCCC(C(F)(F)F)C3)c2c1 (stereo not drawn)

- inhibition (INH) [14]: Not Active
- Ki [5]: 2100 nM
- hepatocyte CLint [16]: < 1 µL/min/1e6 cells
- BPR [17]: 1.56
- inhibition (INH) [18]: Not Active
- Ki [6]: 9700 nM
- concentration at 6 h [19]: 42 ng/g
- inhibition (INH) [20]: Not Active
- hepatocyte CLint [22]: 8.3 µL/min/1e6 cells
- fraction unbound [23]: 0.03
- hepatocyte CLint [24]: 6 µL/min/1e6 cells
Compound: COc1cc(C)c2nc3[nH]nc(C)c3c(CN3CCCOCC3)c2c1
- minimal effective dose [15]: 3 mg/kg
- Activity [1]: 120%
- Activity [2]: 66%
- Activity [4]: 103%
- MED [21]: 30 mg/kg
- inhibition at 10 µM [25]: 5.3%

- Ki [3]: 171 nM
Compound: COc1cc(C)c2nc3[nH]nc(C)c3c(CN3CCOC(C)(C)C3)c2c1

- Ki [3]: 24 nM
Compound: COc1cc(C)c2nc3[nH]nc(C)c3c(CN3CCCC3)c2c1
- minimal effective dose [15]: 1 mg/kg
- Activity [1]: 107%
- Activity [2]: 96%
- Activity [4]: 122%

- Ki [3]: 30 nM
Compound: COc1cc(C)c2nc3[nH]nc(C)c3c(CN3CCN[C@H](C)C3)c2c1
- Activity [4]: inactive

- Ki [3]: 37 nM
Compound: Cc1n[nH]c2nc3c(OC(F)(F)F)cc(Br)cc3c(CN3CCCOCC3)c12
